Data published in patent US12624026B2, “Inhibitors of SARM1” (Disarm Therapeutics, Inc., priority 2018, dated 2026).
pIC50: −log10 of the molar value. Like-named read-outs stand apart in the source and are kept apart here.

Columns and labels:
[1] = system: mouse dorsal root ganglion (DRG) drop culture; assay: Axon degeneration assay in mouse DRG drop culture; format: cell-based; details: protection of axon fragmentation, axonal transection or chemotoxic stimuli
Experimental: This Example illustrates an in vitro axon degeneration assay used to characterize compounds of Formula I or Formula II. This assay is used to test the efficacy of the compounds of Formula I or Formula II to prevent axonal degeneration in a mouse dorsal root ganglion (DRG) drop culture.
Mouse DRG Drop culture: Mouse dorsal root ganglion neurons (DRGs) were dissected out of E12.5 CD1 mice (50 ganglion per embryo) and incubated with 0.5% Trypsin solution containing 0.02% EDTA (Gibco) at 37° C. for 15 min. The cells were then triturated by gentle pipetting and washed 3 times with DRG growth medium (Neurobasal medium (Gibco) containing 2% B27 (Invitrogen), 100 ng/ml 2.5S NGF (Harland Bioproducts), […] 5-fluoro-2′deoxyuridine (Sigma), penicillin, and streptomycin). Cells were suspended in the DRG growth medium. DRG drop cultures were created by spotting 5000 cells/well into the center of each well of a 96-well tissue culture plate coated with poly-D-Lysine (0.1 mg/ml; Sigma) and laminin ([…]; Invitrogen). Cells were allowed to adhere to the plates in a humidified tissue culture incubator (5% CO2) for 15 min and then DRG growth medium was gently added ([…]).
Axon degeneration assay: Axonal degeneration was stimulated either by manual axonal transection using a scalpel blade, or chemotoxic stimuli. After an appropriate experimental time period, the DRG cultures were fixed in 1% PFA plus sucrose and kept in the fridge prior to imaging. Bright-field images of DRG axons and cell bodies were collected using the 20× water immersion lens of a Phenix automated confocal microscope (PerkinElmer) and quantitation of axonal performed using in-house developed scripts (Acapella, PerkinElmer).

SARM1 SAM-TIR = target: T1, SARM1 SAM-TIR (Homo sapiens, UniProt Q6SZW1); assay: biochemical;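 further: inhibition of SARM1 SAM-TIR NADase activity, i.e. NAD+ cleavage, using lysate of NRK1-HEK293T cells overexpressing the SAM-TIR fragment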
T1 construct: a fragment of the SARM1 molecule encompassing the SAM and TIR domains; made in house; host or cells: NRK1-HEK293T cells, transiently transfected; the cleared, unpurified lysate was used as the enzyme
T1 sequence (Q6SZW1 409-724 limits assumed): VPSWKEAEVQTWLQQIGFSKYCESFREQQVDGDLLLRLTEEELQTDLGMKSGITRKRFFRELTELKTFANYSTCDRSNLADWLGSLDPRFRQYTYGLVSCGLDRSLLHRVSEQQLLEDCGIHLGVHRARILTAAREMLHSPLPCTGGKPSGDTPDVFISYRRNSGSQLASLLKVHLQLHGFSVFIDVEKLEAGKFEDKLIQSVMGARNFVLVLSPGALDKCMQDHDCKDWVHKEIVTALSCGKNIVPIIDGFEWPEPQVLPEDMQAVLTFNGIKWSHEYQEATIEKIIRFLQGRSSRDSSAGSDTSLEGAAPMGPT

[2] = SAM-TIR lysate 5 μg/mL, 2 h pre-incubation, 5 μM NAD+, RapidFire MS of NAD+ and ADPR, read-out: SARM1 IC50

| pIC50 (SARM1 SAM-TIR; [2]) | Structure (SMILES) | also measured |
| --- | --- | --- |
| > 6.00 | Cn1sc(Nc2ccccc2C(F)(F)F)c(C#N)c1=O [Example 31] | pIC50 [1]: 4.52 to 5.00 |
| > 6.00 | N#Cc1c(O)nsc1Nc1ccccc1C(F)(F)F [Example 6] | pIC50 [1]: 4.52 to 5.00 |
| 5.30 to 6.00 | COc1cccc(OC)c1Nc1s[nH]c(=O)c1C#N [Example 113] |  |
| > 6.00 | C[C@@H](c1ccccc1)n1sc(Nc2ccccc2C(F)(F)F)c(C#N)c1=O [Example 94] |  |
| > 6.00 | C[C@@H](c1ccccc1)n1sc(Nc2cccc(Cl)c2Cl)c(C#N)c1=O [Example 54] |  |
| > 6.00 | COc1ccc(Cn2sc(Nc3ccccc3)c(C#N)c2=O)cc1 [Example 88] |  |
| 5.30 to 6.00 | N#Cc1c(Nc2cccc(C(N)=O)c2C(F)(F)F)s[nH]c1=O [Example 108] |  |
| > 6.00 | N#Cc1c(O)nsc1Nc1ccccc1Cl [Example 2] |  |
| 5.30 to 6.00 | Cn1sc(Nc2c(Cl)cccc2Cl)c(C(=O)N2CCOCC2)c1=O [Example 143] |  |
| > 6.00 | N#Cc1c(O)nsc1Nc1ccc(Cl)cc1Cl [Example 9] |  |
| 5.30 to 6.00 | CN(C)C(=N)c1c(Nc2c(Cl)ccc3ncccc23)s[nH]c1=O [Example 145] |  |
| > 6.00 | COc1cccc(Cl)c1Nc1s[nH]c(=O)c1C#N [Example 100] |  |
| 5.30 to 6.00 | Cc1cccc(C)c1Nc1snc(O)c1C#N [Example 22] |  |
| > 6.00 | COC[C@H](C)n1sc(Nc2ccccc2C(F)(F)F)c(C#N)c1=O [Example 59] |  |
| > 6.00 | COCCn1sc(Nc2cccc(Cl)c2Cl)c(C(=N)N2CCCCC2)c1=O [Example 127] |  |
| > 6.00 | COc1ccc2nc(C)ccc2c1Nc1sn(C)c(=O)c1C#N [Example 82] |  |
| > 6.00 | N#Cc1c(O)nsc1Nc1ccccc1OC(F)(F)F [Example 15] |  |
| > 6.00 | Cn1sc(Nc2c(Cl)cccc2Cl)c(C#N)c1=O [Example 46] |  |
| < 5.30 | CN(c1ccccc1C(F)(F)F)c1snc(O)c1C#N [Example 30] |  |
| 5.30 to 6.00 | CN(C(=O)c1c(Nc2ccccc2C(F)(F)F)s[nH]c1=O)C1CCCCC1 [Example 112] |  |
| > 6.00 | Cn1sc(Nc2cccc3ncccc23)c(C#N)c1=O [Example 53] |  |
| > 6.00 | Cn1sc(Nc2c(Cl)cccc2Cl)c(C(=N)N2CCOCC2)c1=O [Example 132] |  |
| > 6.00 | CN(C)C(=N)c1c(Nc2ccccc2Cl)sn(C)c1=O [Example 125] |  |
| > 6.00 | Cc1cc(C)n2c1C=C1C=CC(CCC(=O)NCCOCCOCCn3sc(Nc4ccccc4C(F)(F)F)c(C#N)c3=O)=[N+]1[B-]2(F)F [Example 177] |  |
| < 5.30 | COCCN(C)C(=O)c1c(Nc2ccccc2C(F)(F)F)s[nH]c1=O [Example 116] |  |
| > 6.00 | COc1cccc(Cl)c1Nc1sn(C)c(=O)c1C#N [Example 35] |  |
| > 6.00 | COc1cccc(C(F)(F)F)c1Nc1s[nH]c(=O)c1C#N [Example 103] |  |

| pIC50 (SARM1 SAM-TIR; [2]) | Structure (SMILES) | also measured |
| --- | --- | --- |
| 5.30 to 6.00 | N#Cc1c(O)nsc1Nc1ccccc1 [Example 1] |  |
| > 6.00 | Cn1sc(Nc2ccc(Cl)c3c2cnn3C)c(C#N)c1=O [Example 69] |  |
| 5.30 to 6.00 | CN(C)C(=N)c1c(Nc2ccccc2C(F)(F)F)s[nH]c1=O [Example 138] |  |
|  | N#Cc1c(Nc2cccc(C3=CCNCC3)c2C(F)(F)F)s[nH]c1=O [Example 131] | pIC50 (SARM1 SAM-TIR): > 6.00 |
| > 6.00 | COCCn1sc(Nc2c(Cl)ccc3ncccc23)c(C#N)c1=O [Example 86] |  |
| > 6.00 | Cn1sc(Nc2c(Cl)ccc3ncccc23)c(C#N)c1=O [Example 52] |  |
| 5.30 to 6.00 | C[C@@H](c1ccccc1)n1sc(Nc2c(Cl)cccc2Cl)c(C(=N)N(C)C)c1=O [Example 134] |  |
| > 6.00 | C#CCOCCOCCOCCn1sc(Nc2ccccc2C(F)(F)F)c(C#N)c1=O [Example 180] |  |
| 5.30 to 6.00 | N#Cc1c(O)nsc1Nc1cc(Cl)cc(Cl)c1 [Example 10] |  |
| > 6.00 | N#Cc1c(O)nsc1Nc1cccc(Cl)c1Cl [Example 17] |  |
| < 5.30 | N#Cc1c(O)nsc1Nc1cccnc1 [Example 20] |  |
| > 6.00 | Cn1sc(Nc2c(Cl)ccc3c2cnn3C)c(C#N)c1=O [Example 48] |  |
| < 5.30 | Cc1c(Nc2ccccc2C(F)(F)F)s[nH]c1=O [Example 169] |  |
| 5.30 to 6.00 | Cn1sc(Nc2c(F)cccc2Cl)c(C(=O)N2CCOCC2)c1=O [Example 140] |  |
| < 5.30 | N#Cc1c(Nc2cccc(C3CCCNC3)c2C(F)(F)F)s[nH]c1=O (stereo not shown) [Example 157] |  |
| 5.30 to 6.00 | COc1ccc2nc(C)ccc2c1Nc1s[nH]c(=O)c1C#N [Example 106] |  |
| < 5.30 | O=C(c1c(Nc2ccccc2C(F)(F)F)s[nH]c1=O)N1CC2CCC1CC2 [Example 174] |  |
| < 5.30 | N#Cc1c(O)nsc1NCc1ccccc1 [Example 24] |  |
| < 5.30 | COc1cccc(C#N)c1Nc1sn(CC(C)(C)O)c(=O)c1C(=O)N1CCOCC1 [Example 154] |  |
| 5.30 to 6.00 | O=C(c1c(Nc2c(F)cccc2Cl)s[nH]c1=O)N1CCOCC1 [Example 149] |  |
| 5.30 to 6.00 | N#Cc1c(O)nsc1Nc1ccccc1F [Example 11] |  |
| 5.30 to 6.00 | N#Cc1c(O)nsc1Nc1ccc2ccccc2c1 [Example 28] |  |
| > 6.00 | COCCn1sc(Nc2cccc(Cl)c2Cl)c(C(=N)N2CCOCC2)c1=O [Example 130] |  |
| 5.30 to 6.00 | COc1ccccc1Nc1snc(O)c1C#N [Example 14] |  |
| > 6.00 | Cn1sc(Nc2c(Cl)ccc3c2CCCN3)c(C#N)c1=O [Example 77] |  |
| 5.30 to 6.00 | Cc1ccc(Nc2snc(O)c2C#N)cc1 [Example 3] |  |
| < 5.30 | N#Cc1c(Nc2ccc3nc(C(F)(F)F)[nH]c(=O)c3c2)s[nH]c1=O [Example 173] |  |

| pIC50 (SARM1 SAM-TIR; [2]) | Structure (SMILES) | also measured |
| --- | --- | --- |
| > 6.00 | CC(C)(O)Cn1sc(Nc2ccccc2C(F)(F)F)c(C#N)c1=O [Example 64] |  |
| > 6.00 | COC(C)(C)Cn1sc(Nc2c(Cl)cccc2Cl)c(C#N)c1=O [Example 96] |  |
| > 6.00 | N#Cc1c(O)nsc1Nc1cccc2ccccc12 [Example 26] |  |
| > 6.00 | N#Cc1c(Nc2c(Cl)cccc2Cl)sn(CCC(N)=O)c1=O [Example 79] |  |
| > 6.00 | COCCN(C)C(=N)c1c(Nc2cccc(Cl)c2Cl)sn(CCOC)c1=O [Example 124] |  |
| 5.30 to 6.00 | COCCN(C)C(=N)c1c(Nc2cccc(Cl)c2Cl)s[nH]c1=O [Example 139] |  |
| 5.30 to 6.00 | O=C(c1c(Nc2ccccc2C(F)(F)F)s[nH]c1=O)N1CCCCC1 [Example 117] |  |
| > 6.00 | COC(C)(C)Cn1sc(Nc2ccccc2C(F)(F)F)c(C#N)c1=O [Example 97] |  |
| 5.30 to 6.00 | COCCN(C)C(=N)c1c(Nc2ccccc2C(F)(F)F)s[nH]c1=O [Example 141] |  |
| > 6.00 | CN(C)CCn1sc(Nc2c(Cl)cccc2Cl)c(C#N)c1=O [Example 99] |  |
| > 6.00 | N#Cc1c(Nc2ccccc2C(F)(F)F)sn(CCC(=O)N2CCC(N3CCC3)CC2)c1=O [Example 78] |  |
| < 5.30 | O=c1[nH]sc(Nc2ccccc2C(F)(F)F)c1-c1ccccc1 [Example 168] |  |
| 5.30 to 6.00 | CN(C)C(=N)c1c(Nc2ccccc2C2CC2)s[nH]c1=O [Example 146] |  |
| < 5.30 | COCCn1sc(Nc2ccccc2C(F)(F)F)c(-c2ncon2)c1=O [Example 152] |  |
| > 6.00 | N#Cc1c(Nc2ccccc2C(F)(F)F)sn(CCC(=O)O)c1=O [Example 105] |  |
| < 5.30 | CC(C)c1ccc(Nc2snc(O)c2C#N)cc1 [Example 4] |  |
| < 5.30 | COCCn1sc(N(C)c2ccccc2C(F)(F)F)c(-c2ncon2)c1=O [Example 160] |  |
| > 6.00 | C[C@@H](CO)n1sc(Nc2ccccc2C(F)(F)F)c(C#N)c1=O [Example 44] |  |
| < 5.30 | COc1ccc(Cn2sc(N(CCF)c3ccccc3C(F)(F)F)c(C#N)c2=O)cc1 [Example 121] |  |
| 5.30 to 6.00 | COc1cccc(C)c1Nc1s[nH]c(=O)c1C#N [Example 109] |  |
| < 5.30 | C[C@@H](c1ccccc1)n1sc(Nc2c(Cl)cccc2Cl)c(C(=N)N2CCOCC2)c1=O [Example 165] |  |
| 5.30 to 6.00 | C[C@@H](c1ccccc1)n1sc(Nc2c(Cl)cccc2Cl)c(C(=O)N2CCOCC2)c1=O [Example 167] |  |
| < 5.30 | COc1cccc(C(F)(F)F)c1Nc1sn(C)c(=O)c1C(=O)N1CCOCC1 [Example 158] |  |
| 5.30 to 6.00 | COCCn1sc(Nc2c(OC)cccc2C(F)(F)F)c(C(=N)N(C)C)c1=O [Example 135] |  |
| > 6.00 | CCn1sc(Nc2ccccc2C(F)(F)F)c(C#N)c1=O [Example 65] |  |
| > 6.00 | C[C@@H](c1ccccc1)n1sc(Nc2ccccc2C(F)(F)F)c(C(=N)N(C)C)c1=O [Example 128] |  |
